# Like-named read-outs stand apart in the source and are kept apart here.
# Experiments:
# FAM-labelled TAR RNA = test: Quenching of FAM-labelled TAR RNA by unlabelled ADP-1 peptide; assay type: binding, HIV; conditions: 2 nM FAM-TAR
# Protocol: The FAM-TAR was diluted from a 100 nM stock solution in TK buffer (50 mM Tris-HCl pH7.6, 20 mM KCl) to obtain a final assay concentration of 2 nM in 200 μl reaction volume. The unlabelled ADP-1 peptide was prepared in TK buffer as a 2 fold dilution series at 10 times the assay concentration and diluted 10 fold into the final assay volume (200 μl). After complex formation was performed for 20 minutes at room temperature the fluorescence-emission at 535 nm was determined in a Wallac Victor™ 1420 following excitation at 485 nm.
# The level of fluorescence obtained in the absence of the unlabelled ADP-1 peptide is normalised to 100% and the levels of fluorescence obtained in the presence of the unlabelled ADP-1 peptide are expressed as a percentage of this value.
# TAR RNA = test: Competition binding assay, FAM-labelled TAR RNA Duplex-1 / TAMRA-labelled ADP-1; set-up: species or system HIV; conditions: for Ki: 2 nM FAM-labelled TAR RNA, 18 nM unlabelled TAR RNA; for binding to TAR RNA (competitor efficiency): FIG. 8 and FIG. 9
# Protocol: This experiment was performed with a starting condition in which there is an equimolar ratio of TAMRA-labelled ADP-1 peptide and TAR RNA (both labelled and unlabelled). A pre-mix is prepared on ice containing 2 nM FAM-labelled TAR RNA, 18 nM unlabelled TAR RNA and 20 nM TAMRA-labelled ADP-1 peptide diluted in TK buffer to provide the final concentrations (as detailed above) in each 200 μl reaction volume. The ADP-1 peptide was prepared as a 2 fold dilution series in TK buffer at 10 times the assay concentration and diluted 10 fold into the final assay volume. The competition assays were equilibrated for 15 minutes at room temperature and the fluorescence-emission spectra at 535 nm determined in a Wallac Victor™ 1420 following excitation at 485 nm.
# Under these conditions, the Ki for the unlabelled ADP-1 competitor was measured as 100 nM.
# TAMRA-labelled ADP-1 peptide and increasing concentrations of C5 cyclic peptide (SEQ ID 9). A pre-mix is prepared on ice containing the FAM-labelled TAR RNA, unlabelled TAR RNA and the TAMRA-labelled ADP-1 peptide diluted in TK buffer to provide the final concentrations (as detailed above) in each 200 μl reaction volume. The C5 cyclic peptide was prepared as a 2 fold dilution series in TK buffer at 10 times the assay concentration and diluted 10 fold in to the final assay volume.
# TAR RNA Duplex-2 = test: Competition binding assay, FAM-labelled TAR RNA Duplex-2 / TAMRA-labelled ADP-1; set-up: species or system HIV; conditions: saturating concentrations of ADP-1 competitor
# Text: In order to obtain efficient fluorescent resonance energy transfer and/or quenching it is important that the fluorescent groups are placed on the reporter and the target RNA to permit close contact between the donor and acceptors after complex formation. In this experiment the FAM group on the TAR RNA target (Duplex 2) has been displaced by the addition of a base pair. This alteration to the target RNA structure has the effect of increasing the distance of the FAM group from the binding site on the TAR RNA duplex by 2 Å more than the equivalent group on the TAR RNA Duplex 1 target. In addition, insertion of the base pair rotates the FAM group by 18° compared to the equivalent group in the Duplex-1 TAR RNA target.
# Because Duplex-2 has a sub-optimal spacing of the FAM-label on TAR RNA it gives rise to a poor signal in the assay compared to Duplex-1, with a less than 50% rise in fluorescence in the presence of saturating concentrations of ADP-1 competitor.
# [1] = target: FAM-labelled TAR RNA duplex 1; test: Quenching of FAM-labelled TAR RNA by TAMRA-labelled ADP-1 (complex formation); assay type: binding, HIV
# Protocol: In this experiment, 2 nM FAM-labelled TAR RNA was mixed with increasing concentrations of TAMRA-labelled ADP-1 peptide. The FAM-TAR was diluted from a 100 nM stock solution in TK buffer (50 mM Tris-HCl pH 7.6, 20 mM KCl) to obtain a final assay concentration of 2 nM in 200 μl reaction volume. The TAMRA-labelled ADP-1 peptide was prepared in TK buffer as a 2-fold dilution series at 10 times the assay concentration and diluted 10 fold in to the final assay volume (200 μl). Complex formation was performed for 20 minutes at room temperature and the fluorescence-emission spectra at 535 nm determined in a Wallac Victor™ 1420 following excitation at 485 nm.
# The level of fluorescence obtained in the absence of TAMRA-labelled ADP-1 peptide gave a fluorescence intensity of 2100 units. As the ADP-1 concentration is increased there is a progressive loss of fluorescence intensity detected, until at concentrations of ADP-1 greater than 100 nM there is over 80% loss of fluorescence intensity and there is no further quenching detected.
# TAR bulge RNA = test: Dabcyl-peptide binding to Fam-labelled RNA (quenching), TAR; set-up: species or system HIV; conditions: 110 mM KCl
# Text: (§1) A representative subset comprising 40 peptide sequences from the total of 243 possible sequences was synthesised and is shown in Table 6. The peptides from the library are: No. 3 (SEQ ID NO:11), 4 (SEQ ID NO:12), 5 (SEQ ID NO:13), 6 (SEQ ID NO:14), 7 (SEQ ID NO:15), 8 (SEQ ID NO:16), 9 (SEQ ID NO:17), 10 (SEQ ID NO:18), 11 (SEQ ID NO:19), 12 (SEQ ID NO:20), 13 (SEQ ID NO:21), 14 (SEQ ID NO:22), 15 (SEQ ID NO:23), 16 (SEQ ID NO:24), 17 (SEQ ID NO:25), 18 (SEQ ID NO:26), 19 (SEQ ID NO:27), 20 (SEQ ID NO:28), 21 (SEQ ID NO:29), 22 (SEQ ID NO:30), 23 (SEQ ID NO:31), 24 (SEQ ID NO:32), 25 (SEQ ID NO:33), 26 (SEQ ID NO:34), 27 (SEQ ID NO:35), 28 (SEQ ID NO:36), 29 (SEQ ID NO:37), 30 (SEQ ID NO:38), 31 (SEQ ID NO:39), 32 (SEQ ID NO:40), 33 (SEQ ID NO:41), 34 (SEQ ID NO:42), 35 (SEQ ID NO:43), 36 (SEQ ID NO:44), 37 (SEQ ID NO:45), 38 (SEQ ID NO:46), 39 (SEQ ID NO:47), 40 (SEQ ID NO:48), 41 (SEQ ID NO:49), 42 (SEQ ID NO:50). These peptides were assayed for their ability to bind to range of RNA sequences carrying fluorescein attached to the 5′ end, as shown in FIG. 25.
# (§2) FIG. 26. presents binding data for the peptide sequence 5 (KKQKR) (SEQ ID NO: 13) and the 4 RNA sequences. Reactions (100 μl) containing Fam-labelled RNA (10 nM) were mixed with increasing concentrations of Dabcyl-labelled ADP-1 peptide (up to 250 nM) in 50 mM Tris/Cl, pH7.4, 20 mM or 110 mM KCl (as indicated), 5 μg/ml BSA, 0.01% Triton X-100, 1% DMSO. Fluorescence (excitation 490 nm/emission at 535 nm) was determined using a Victor plate reader.
# (§3) Dissociation constants were determined by fitting a binding isotherm (1-site-binding) to the data using the equation:
# (§4) Y=((Fmax−Fmin)−((Fmax−Fmin)*X/(Kd+X)))+Fmin
# (§5) where Fmax is fluorescence in the absence of quencher, Fmin is fluorescence at saturation, and X is peptide concentration.
# RRE RNA = test: Dabcyl-peptide binding to Fam-labelled RNA (quenching), RRE; set-up: species or system HIV; conditions: for Kd: RRE, 110 mM KCl
# Text: as §1, §2, §3, §4, §5
# GTPase-LHL RNA = test: Dabcyl-peptide binding to Fam-labelled RNA (quenching), GTPase LHL; conditions: for Kd: GTPase-LHL, 110 mM KCl; for binding to the GTPase RNA: FIG. 27
# Text: as §1, §2, §3, §4, §5
# ss-19mer RNA = test: Dabcyl-peptide binding to Fam-labelled RNA (quenching), single stranded RNA; conditions: for Kd: ss-19mer, 110 mM KCl
# Text: as §1, §2, §3, §4, §5
# [2] = 20 nM TAMRA-labelled ADP-1, 0-100 μM cyclic peptide, average ± SD of three, read-out: Ki
Substance,Kd (TAR bulge RNA),Kd (GTPase-LHL RNA),Kd (ss-19mer RNA),other results
"ADP-1: unlabelled peptide derived from HIV Tat, residues 37 to 72 (SEQ ID NO: 7) (FTTKALGISYGRKKRRQRRRPPQGSGTHQVSLSKQ; Human immunodeficiency virus)",–,–,–,"quenching of the FAM group present on TAR RNA (FAM-labelled TAR RNA): ≤ 20%; Ki (TAR RNA; 20 nM TAMRA-labelled ADP-1, read-out: Ki for the unlabelled ADP-1 competitor): 100 nM; rise in fluorescence (TAR RNA Duplex-2): less than 50%"
TAMRA-Phe-Thr-Thr-Lys-Ala-Leu-Gly-Ile-Ser-Tyr-Gly-Arg-Lys-Lys-Arg-Arg-G ln-Arg-Arg-Arg-Pro-Pro-Gln-Gly-Ser-Gln-Thr-His-Gln-Val-Ser-Leu-Ser-Lys-Gln [TAMRA-labelled ADP-1],–,–,–,"Kd ([1]; 2 nM FAM-labelled TAR RNA, TK buffer, read-out: binding constant (Kd) of TAMRA-labelled ADP-1 for FAM-labelled TAR RNA duplex 1): ~25 nM; loss of fluorescence intensity ([1]; concentrations of ADP-1 greater than 100 nM): over 80%"
"c(KRRFR) [C5] (cyclo(KRRFR); also: D-residues marked by underlining, not recoverable) [cyclic pentapeptide]",–,–,–,Ki (TAR RNA; [2]): 1870 ± 420 nM; binding to TAR RNA (competitor efficiency) (TAR RNA): most efficient competitors
cyclo(KRRFR) [C5/1],–,–,–,Ki (TAR RNA; [2]): 15300 ± 2500 nM
cyclo(KRRFR) [C5/2],–,–,–,Ki (TAR RNA; [2]): 12700 ± 6580 nM
cyclo(KRRFR) [C5/3],–,–,–,Ki (TAR RNA; [2]): 15200 ± 3790 nM
cyclo(KRRFR) [C5/4],–,–,–,Ki (TAR RNA; [2]): 8280 ± 3010 nM; binding to TAR RNA (competitor efficiency) (TAR RNA): most efficient competitors
cyclo(KRRFR) [C5/5],–,–,–,Ki (TAR RNA; [2]): 17100 ± 13000 nM
library peptide Dabcyl-Thr-Arg-Lys-X-X-X-X-X-Arg-Lys-Ser-Gly with X5 = KKKKK,24 nM,26 nM,> 500 nM,Kd (RRE RNA): 12 nM
library peptide Dabcyl-Thr-Arg-Lys-X-X-X-X-X-Arg-Lys-Ser-Gly with X5 = KKKQR,27 nM,76 nM,> 500 nM,Kd (RRE RNA): 30 nM
library peptide Dabcyl-Thr-Arg-Lys-X-X-X-X-X-Arg-Lys-Ser-Gly with X5 = KKQKR,56 nM,74 nM,> 500 nM,"binding of the peptide, measured by quenching of the fluorescenated RNA (RRE RNA; RRE sequence compared with the other RNAs, FIG. 26): highest affinity binding; Kd (RRE RNA): 15 nM; binding of the peptide, measured by quenching of the fluorescenated RNA (ss-19mer RNA; single stranded RNA, FIG. 26): no significant binding"
library peptide Dabcyl-Thr-Arg-Lys-X-X-X-X-X-Arg-Lys-Ser-Gly with X5 = KKQRR,–,55 nM,> 500 nM,Kd (RRE RNA): 20 nM
library peptide Dabcyl-Thr-Arg-Lys-X-X-X-X-X-Arg-Lys-Ser-Gly with X5 = KKRQR,–,43 nM,> 500 nM,Kd (RRE RNA): 24 nM
library peptide Dabcyl-Thr-Arg-Lys-X-X-X-X-X-Arg-Lys-Ser-Gly with X5 = KQKKR,16 nM,–,–,–
library peptide Dabcyl-Thr-Arg-Lys-X-X-X-X-X-Arg-Lys-Ser-Gly with X5 = KQKRR,11 nM,–,–,–
library peptide Dabcyl-Thr-Arg-Lys-X-X-X-X-X-Arg-Lys-Ser-Gly with X5 = KQQQR,> 500 nM,–,–,–
library peptide Dabcyl-Thr-Arg-Lys-X-X-X-X-X-Arg-Lys-Ser-Gly with X5 = KQRQR,9 nM,–,–,–
library peptide Dabcyl-Thr-Arg-Lys-X-X-X-X-X-Arg-Lys-Ser-Gly with X5 = QQQKR,> 500 nM,–,–,–
library peptide Dabcyl-Thr-Arg-Lys-X-X-X-X-X-Arg-Lys-Ser-Gly with X5 = QQQQQ,–,> 500 nM,> 500 nM,binding to the GTPase RNA (GTPase-LHL RNA): no significant binding
library peptide Dabcyl-Thr-Arg-Lys-X-X-X-X-X-Arg-Lys-Ser-Gly with X5 = QQQRR,> 500 nM,–,–,–
library peptide Dabcyl-Thr-Arg-Lys-X-X-X-X-X-Arg-Lys-Ser-Gly with X5 = RQQQR,> 500 nM,–,–,–
library peptide Dabcyl-Thr-Arg-Lys-X-X-X-X-X-Arg-Lys-Ser-Gly with X5 = RRRRR,–,16 nM,194 nM,Kd (RRE RNA): 30 nM; binding to the GTPase RNA (GTPase-LHL RNA): Efficient binding
